Assay results taken from patent US20260098039A1, “SOLID FORMS OF COMPOUND I OR SALTS THEREOF” (Jacobio Pharmaceuticals Co., Ltd., priority 2022, published 2026).
Converted amounts (≈) assume the structure as drawn. “Also recorded” adds a separate entry of the source.

Experiments:
[1] = target: T1, PARP7 enzyme (Homo sapiens, UniProt Q7Z3E1); assay: PARP7 enzymatic HTRF assay; type: binding; conditions: 6 nM PARP7 enzyme solution, RBN011147 probe, 25° C. 3 hrs
T1 sequence (Q7Z3E1 1-657): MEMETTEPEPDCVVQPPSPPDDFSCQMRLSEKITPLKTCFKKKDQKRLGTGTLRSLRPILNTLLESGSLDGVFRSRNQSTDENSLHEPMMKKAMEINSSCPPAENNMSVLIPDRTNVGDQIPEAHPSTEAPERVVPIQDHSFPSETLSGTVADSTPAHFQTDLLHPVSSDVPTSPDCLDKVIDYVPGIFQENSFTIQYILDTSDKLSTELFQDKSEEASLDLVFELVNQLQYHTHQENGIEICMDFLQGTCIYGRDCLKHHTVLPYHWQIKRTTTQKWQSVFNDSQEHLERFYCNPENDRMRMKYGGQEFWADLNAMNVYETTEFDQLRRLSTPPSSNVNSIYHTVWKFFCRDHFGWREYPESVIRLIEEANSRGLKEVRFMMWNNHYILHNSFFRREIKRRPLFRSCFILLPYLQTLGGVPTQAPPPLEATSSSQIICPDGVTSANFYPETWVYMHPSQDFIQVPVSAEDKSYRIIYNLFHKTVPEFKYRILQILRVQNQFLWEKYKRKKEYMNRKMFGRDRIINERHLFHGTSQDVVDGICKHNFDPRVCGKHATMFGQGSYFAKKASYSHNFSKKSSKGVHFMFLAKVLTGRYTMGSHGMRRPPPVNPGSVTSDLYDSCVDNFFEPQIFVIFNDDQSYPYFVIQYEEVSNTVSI
Protocol: The PARP7 enzyme inhibitory activity of each compound was tested using HTRF (homogeneous time resolved fluorescence) assay, and the half inhibitory concentration IC50 thereof was obtained.
(1) Each compound to be tested was prepared using gradient dilution method with DMSO and water to obtain a solution with the concentration of 50 nM, 10 nM, 2 nM, 0.4 nM, and 0.08 nM. The concentration of DMSO in the solution of each compound to be tested was 2%. […]
(5) The fluorescence signal was read on SPARK plate reader (Tecan), the wavelength of the excitation spectrum of the SPARK plate reader was 320 nm, and the wavelength of the emission spectrum of the SPARK plate reader was 620 nm and 665 nm. The ratio of […] was calculated for the solution in each well. The ratio was calculated according to the following formula: Ratio=absorbance at 665 nm/absorbance at 620 nm×10^4.
(6) The activation of the compounds to be tested was calculated according to the following formula: Activation (%)=100× (ratiocompound−rationnegative)/(ratiopositive−rationegative). […]

[2] = Equilibrium solubility of crystalline form 1; type: physicochemical
Protocol: The equilibrium solubility of crystalline form 1 of Compound I was tested according to the following table 7.

[3] = Solid state stability of crystalline form 1; type: physicochemical; conditions: long-term, accelerated, high temperature and high humidity conditions, exposed, dark, 10 days
Protocol: The stability of crystalline Form 1 of Compound I was tested according to the following table 6.
The solid stability of crystalline form 1 of Compound I was exposure for 10 days in high humidity (25° C.±2° C., 90% RH±5% RH), high temperature (50° C.±5° C., <30% RH), long-term (25° C.±5° C., 60% RH±5%) and accelerated (40° C.±2° C., 75% RH±5%) conditions.

Cc1c2n(c3ncc(C(F)(F)F)cc13)CCN(C(=O)CCOC[C@H](C)Oc1cn[nH]c(=O)c1C(F)(F)F)C2 [Compound I, (S)-5-((1-(3-(5-methyl-3-(trifluoromethyl)-8,9-dihydropyrido[3′,2′:4,5]pyrrolo[1,2-a]pyrazin-7(6H)-yl)-3-oxopropoxy)propan-2-yl)oxy)-4-(trifluoromethyl)pyridazin-3(2H)-one]
IC50 [1]: 0.00158 µM

Cc1c2n(c3ncc(C(F)(F)F)cc13)CCN(C(=O)CCOC[C@H](C)Oc1cn[nH]c(=O)c1C(F)(F)F)C2 [crystalline form 1 of Compound I, (S)-5-((1-(3-(5-methyl-3-(trifluoromethyl)-8,9-dihydropyrido[3′,2′:4,5]pyrrolo[1,2-a]pyrazin-7(6H)-yl)-3-oxopropoxy)propan-2-yl)oxy)-4-(trifluoromethyl)pyridazin-3(2H)-one]
solubility thermodynamic ([2]; 37 °C, thermodynamic from solid, FeSSIF, via HPLC): ~100 µg/mL (≈ 183 µM) | Polymorph (via XRPD) after equilibrium solubility test ([2]; after 24 h in water (25° C.), SGF (37° C.), FaSSIF (37° C.), FeSSIF (37° C.)): remains unchanged | time to reach basic saturation ([2]; water (25° C.), SGF (37° C.), FaSSIF (37° C.), FeSSIF (37° C.)): 4 h | Polymorph (via XRPD) in solid state stability [3]: remain unchanged; also recorded: The polymorph remained unchanged under above 4 conditions for 10
